Reference: ChEMBL document CHEMBL3351921, “Structure-activity relationships (SAR) and structure-kinetic relationships (SKR) of pyrrolopiperidinone acetic acids as CRTh2 antagonists” (Bioorg Med Chem Lett, 2014)
In brackets after ≈: the same amount, converted by molar mass. Activity calls are given as the source filed them. The calls are words filed in the database; no cut-off is given here.

How the values were obtained:
[1] = Terminal half life in rat at 10 mg/kg, po; format: ADME, organism-based; design: dose 10 mg/kg, route oral; conditions: in vivo, read-out: beta t1/2 (converted)
[2] = Terminal half life in rat at 1 mg/kg, iv; format: ADME, organism-based; design: dose 1 mg/kg, route intravenous; conditions: in vivo, read-out: beta t1/2 (converted)
[3] = Clearance in rat at 1 mg/kg, iv; format: ADME, organism-based; design: dose 1 mg/kg, route intravenous; conditions: in vivo
[4] = Oral bioavailability in rat at 10 mg/kg; format: ADME, organism-based; conditions: in vivo
[5] = target: T1, Prostaglandin D2 receptor (Homo sapiens) (UniProt Q13258); assay: Inhibition of at prostanoid DP1 receptor (unknown origin) at 10 uM
T1 sequence (whole entry): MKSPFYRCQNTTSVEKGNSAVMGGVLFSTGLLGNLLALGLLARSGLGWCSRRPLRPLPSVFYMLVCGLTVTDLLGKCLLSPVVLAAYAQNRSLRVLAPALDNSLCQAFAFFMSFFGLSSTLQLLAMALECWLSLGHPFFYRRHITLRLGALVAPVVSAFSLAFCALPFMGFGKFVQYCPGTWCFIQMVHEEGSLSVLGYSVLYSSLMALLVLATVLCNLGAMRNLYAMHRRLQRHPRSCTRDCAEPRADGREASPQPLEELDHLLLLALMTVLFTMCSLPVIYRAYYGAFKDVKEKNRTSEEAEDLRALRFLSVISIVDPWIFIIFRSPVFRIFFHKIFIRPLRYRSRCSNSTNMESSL

[6] = AUC (0 to infinity) in rat at 1 mg/kg, iv; format: ADME, organism-based; design: time infinity, dose 1 mg/kg, route intravenous; conditions: plasma
[7] = Cmax in rat at 1 mg/kg, iv; format: ADME, organism-based; design: dose 1 mg/kg, route intravenous; conditions: in vivo
[8] = target: T2, Prostaglandin D2 receptor 2 (Homo sapiens) (UniProt Q9Y5Y4); conditions: CHO.K1
T2 sequence (whole entry): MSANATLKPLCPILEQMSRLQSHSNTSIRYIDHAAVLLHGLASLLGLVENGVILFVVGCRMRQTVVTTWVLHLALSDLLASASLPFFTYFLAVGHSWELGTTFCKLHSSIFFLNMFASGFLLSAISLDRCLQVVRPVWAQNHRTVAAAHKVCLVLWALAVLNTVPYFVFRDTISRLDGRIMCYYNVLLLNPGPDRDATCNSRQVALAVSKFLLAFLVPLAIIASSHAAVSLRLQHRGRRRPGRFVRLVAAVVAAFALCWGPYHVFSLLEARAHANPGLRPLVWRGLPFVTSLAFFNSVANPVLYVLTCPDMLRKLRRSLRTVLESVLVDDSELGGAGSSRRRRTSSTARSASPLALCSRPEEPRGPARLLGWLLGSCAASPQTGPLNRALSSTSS
Description: Antagonist activity at CRTh2 (unknown origin) stably expressed in PGD2-stimulated CHO.K1 cells assessed as dissociation half-life at 5 to 10 times IC50 after 2 hrs by radio-labelled [35S]-GTPgammaS binding assay

[9] = target: T3, Prostaglandin D2 receptor 2 (Homo sapiens, UniProt Q9Y5Y4); assay: Antagonist activity at CRTh2 (unknown origin) stably expressed in PGD2-stimulated CHO.K1 cells preincubated for 1 hr by radio-labelled [35S]-GTPgammaS binding assay; format: functional, cell-based
T3 sequence (Q9Y5Y4 whole entry): T2 sequence (whole entry)

[10] = Cmax in rat at 10 mg/kg, po; format: ADME, organism-based; design: dose 10 mg/kg, route oral; conditions: in vivo
[11] = Volume of distribution at steady state in rat at 1 mg/kg, iv; format: ADME, organism-based; design: dose 1 mg/kg, route intravenous; conditions: in vivo, read-out: Vdss
[12] = AUC (0 to infinity) in rat at 10 mg/kg, po; format: ADME, organism-based; design: time infinity, dose 10 mg/kg, route oral; conditions: plasma
[13] = target: T4, Thromboxane A2 receptor (Homo sapiens) (UniProt P21731); assay: Inhibition of at prostanoid TP receptor (unknown origin) at 10 uM
T4 sequence (whole entry): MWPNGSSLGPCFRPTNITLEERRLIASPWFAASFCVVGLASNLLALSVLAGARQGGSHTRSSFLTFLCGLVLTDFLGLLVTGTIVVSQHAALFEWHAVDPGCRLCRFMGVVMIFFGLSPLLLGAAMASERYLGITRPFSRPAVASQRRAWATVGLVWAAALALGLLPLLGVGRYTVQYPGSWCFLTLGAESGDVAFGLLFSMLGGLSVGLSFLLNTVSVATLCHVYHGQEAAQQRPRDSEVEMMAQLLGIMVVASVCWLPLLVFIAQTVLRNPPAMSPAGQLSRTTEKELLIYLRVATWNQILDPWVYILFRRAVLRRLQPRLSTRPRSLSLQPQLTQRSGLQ

[14] = target: T3, Prostaglandin D2 receptor 2; assay: Antagonist activity at CRTh2 (unknown origin) stably expressed in PGD2-stimulated CHO.K1 cells preincubated for 180 mins by radio-labelled [35S]-GTPgammaS binding assay; format: functional, cell-based
[15] = Dissociation constant, pKa of the compound by potentiometric method; format: physicochemical
[16] = target: T3, Prostaglandin D2 receptor 2; assay: Antagonist activity at CRTh2 (unknown origin) stably expressed in PGD2-stimulated CHO.K1 cells preincubated for 30 mins by radio-labelled [35S]-GTPgammaS binding assay; format: functional, cell-based
[17] = target: T3, Prostaglandin D2 receptor 2; assay: Antagonist activity at CRTh2 (unknown origin) stably expressed in PGD2-stimulated CHO.K1 cells preincubated for 15 mins by radio-labelled [35S]-GTPgammaS binding assay; format: functional, cell-based
[18] = target: T3, Prostaglandin D2 receptor 2; assay: Antagonist activity at CRTh2 (unknown origin) stably expressed in PGD2-stimulated CHO.K1 cells preincubated for 60 mins by radio-labelled [35S]-GTPgammaS binding assay; format: functional, cell-based
[19] = target: T3, Prostaglandin D2 receptor 2; assay: Antagonist activity at CRTh2 (unknown origin) stably expressed in CHO.K1 cells co-mixing the compound and PGD2 by radio-labelled [35S]-GTPgammaS binding assay; format: functional, cell-based
[20] = target: T3, Prostaglandin D2 receptor 2; assay: Antagonist activity at CRTh2 (unknown origin) stably expressed in PGD2-stimulated CHO.K1 cells preincubated for 120 mins by radio-labelled [35S]-GTPgammaS binding assay; format: functional, cell-based
Rattus norvegicus [21] = assay: Volume of distribution at steady state in rat assessed as 2-(2-methyl-4-oxo-3-(2-(phenylsulfonyl)benzyl)-4,5,6,7-tetrahydro-1H-pyrrolo[3,2-c]pyridin-1-yl)acetic acid at 1 mg/kg, iv; format: ADME, organism-based; design: dose 1 mg/kg, route intravenous; conditions: in vivo
Rattus norvegicus [22] = assay: Terminal half life in rat assessed as 2-(2-methyl-4-oxo-3-(2-(phenylsulfonyl)benzyl)-4,5,6,7-tetrahydro-1H-pyrrolo[3,2-c]pyridin-1-yl)acetic acid at 10 mg/kg, po; format: ADME, organism-based; design: dose 10 mg/kg, route oral; conditions: in vivo
Rattus norvegicus [23] = assay: AUC (0 to infinity) in rat assessed as 2-(2-methyl-4-oxo-3-(2-(phenylsulfonyl)benzyl)-4,5,6,7-tetrahydro-1H-pyrrolo[3,2-c]pyridin-1-yl)acetic acid at 1 mg/kg, iv; format: ADME, organism-based, Plasma; design: time infinity, dose 1 mg/kg, route intravenous; conditions: in vivo
Rattus norvegicus [24] = assay: Terminal half life in rat assessed as 2-(2-methyl-4-oxo-3-(2-(phenylsulfonyl)benzyl)-4,5,6,7-tetrahydro-1H-pyrrolo[3,2-c]pyridin-1-yl)acetic acid at 1 mg/kg, iv; format: ADME, organism-based; design: dose 1 mg/kg, route intravenous; conditions: in vivo
Rattus norvegicus [25] = assay: Cmax in rat assessed as 2-(2-methyl-4-oxo-3-(2-(phenylsulfonyl)benzyl)-4,5,6,7-tetrahydro-1H-pyrrolo[3,2-c]pyridin-1-yl)acetic acid at 10 mg/kg, po; format: ADME, organism-based; design: dose 10 mg/kg, route oral; conditions: in vivo
Rattus norvegicus [26] = assay: Cmax in rat assessed as 2-(2-methyl-4-oxo-3-(2-(phenylsulfonyl)benzyl)-4,5,6,7-tetrahydro-1H-pyrrolo[3,2-c]pyridin-1-yl)acetic acid at 1 mg/kg, iv; format: ADME, organism-based; design: dose 1 mg/kg, route intravenous; conditions: in vivo
Rattus norvegicus [27] = assay: Oral bioavailability in rat assessed as 2-(2-methyl-4-oxo-3-(2-(phenylsulfonyl)benzyl)-4,5,6,7-tetrahydro-1H-pyrrolo[3,2-c]pyridin-1-yl)acetic acid at 10 mg/kg; format: ADME, organism-based; conditions: in vivo
Rattus norvegicus [28] = assay: AUC (0 to infinity) in rat assessed as 2-(2-methyl-4-oxo-3-(2-(phenylsulfonyl)benzyl)-4,5,6,7-tetrahydro-1H-pyrrolo[3,2-c]pyridin-1-yl)acetic acid at 10 mg/kg, po; format: ADME, organism-based, Plasma; design: time infinity, dose 10 mg/kg, route oral; conditions: in vivo
[29] = Lipophilicity, log D of the compound by shake-flask method; format: physicochemical; conditions: octanol/water
[30] = Apparent permeability across basolateral to apical side of human Caco2 cells at pH 7.4; format: ADME, cell-based; conditions: Caco-2, pH 7.4
[31] = Aqueous solubility of the compound at pH 7.4; format: physicochemical
[32] = Apparent permeability across apical to basolateral side of human Caco2 cells at pH 7.4; format: ADME, cell-based; conditions: Caco-2, pH 7.4
[33] = Aqueous solubility of the compound at pH 1; format: physicochemical
[34] = target: T3, Prostaglandin D2 receptor 2; assay: Antagonist activity at CRTh2 (unknown origin) stably expressed in CHO.K1 cells preincubated for 1 hr by radio-labelled [35S]-GTPgammaS binding assay in presence of 4% HSA; format: functional, cell-based
Cavia porcellus = species: Cavia porcellus; assay: Antiinflammatory activity in guinea pig eosinophilia model; format: functional, organism-based

Row | Compound | half-life [1] | half-life [2] | clearance [3] | bioavailability [4] | inhibition [5] | AUC(0-inf) [6] | Cmax [7] | T1/2 [8] | IC50 [9] | Cmax [10] | Vd [11] | AUC(0-inf) [12] | inhibition [13] | IC50 [14] | pKa [15] | IC50 [16] | IC50 [17] | IC50 [18] | IC50 [19] | IC50 [20] | also measured
1 | Cc1c(Cc2ccccc2S(=O)(=O)c2ccc(F)cc2)c2c(n1CC(=O)O)CCNC2=O | 5.6 h | 2.2 h | 6.8 mL/min/kg | 1.5% | < 30% | 2460 ng·h/mL | 5740 ng/mL | 3.3 h | 3.3 nM | 102 ng/mL | 0.19 L/kg | 380 ng·h/mL | < 30% | – | – | – | – | – | – | – | –
2 | COc1ccc(S(=O)(=O)c2ccc(F)cc2)c(Cc2c3c(n(CC(=O)O)c2C)CCNC3=O)c1 | 2.2 h | 0.3 h | 27 mL/min/kg | 1.2% | < 30% | 613 ng·h/mL | 1960 ng/mL | 23 h | 7.1 nM | 36 ng/mL | 0.31 L/kg | 76 ng·h/mL | < 30% | 2.1 nM | 3.1 | 4.1 nM | 6.9 nM | 3.6 nM | 10 nM | 2.4 nM | –
3 | CCOC(=O)Cn1c(C)c(Cc2ccccc2S(=O)(=O)c2ccccc2)c2c1CCNC2=O | – | – | – | – | – | – | – | – | – | – | – | – | – | – | – | – | – | – | – | – | Vdss (Rattus norvegicus [21]): 0.25 L/kg; beta t1/2 (Rattus norvegicus [22]): 7.4 h; AUC (Rattus norvegicus [23]): 1726 ng·h/mL; beta t1/2 (Rattus norvegicus [24]): 0.3 h; Cmax (Rattus norvegicus [25]): 842 ng/mL; Cmax (Rattus norvegicus [26]): 5370 ng/mL; F (Rattus norvegicus [27]): 27%; AUC (Rattus norvegicus [28]): 4623 ng·h/mL

Continued, in another order:

Row | half-life [1] | half-life [2] | clearance [3] | bioavailability [4] | inhibition [5] | AUC(0-inf) [6] | Cmax [7] | T1/2 [8] | IC50 [9] | Cmax [10] | Vd [11] | AUC(0-inf) [12] | inhibition [13] | IC50 [14] | pKa [15] | IC50 [16] | IC50 [17] | IC50 [18] | IC50 [19] | IC50 [20] | Compound | also measured
4 | – | – | – | – | < 30% | – | – | 2.3 h | 5 nM | – | – | – | < 30% | 3 nM | 3 | 4.5 nM | 4.9 nM | 4 nM | 6.5 nM | 3 nM | Cc1c(Cc2ccccc2S(=O)(=O)c2ccccc2)c2c(n1CC(=O)O)CCNC2=O | logD [29]: 0.9; Papp B→A [30]: 0.1 ×10⁻⁶ cm/s; solubility [31]: 870 µg/mL (≈ 1980 µM); Papp A→B [32]: 0.01 ×10⁻⁶ cm/s; solubility [33]: 500 µg/mL (≈ 1140 µM); IC50 [34]: 10 nM
5 | 2.5 h | 0.8 h | 8.4 mL/min/kg | 1.3% | < 30% | 2050 ng·h/mL | 5490 ng/mL | 10 h | 4 nM | 126 ng/mL | 0.19 L/kg | 275 ng·h/mL | < 30% | 2.1 nM | 3 | 5.5 nM | 6.3 nM | 4.2 nM | 7.7 nM | 2.9 nM | Cc1c(Cc2ccccc2S(=O)(=O)c2ccccc2)c2c(n1CC(=O)O)CC(C)(C)NC2=O | Papp A→B [32]: 1.1 ×10⁻⁶ cm/s; Activity (Cavia porcellus): Active
